# Assay results taken from patent publication US7582659B2, “Cyclopropyl group substituted oxazolidinone antibiotics and derivatives thereof” (Merck & Co., Inc., priority 2003, dated 2009).
# How the values were obtained:
# Format in all cases: cell-based
# [1] = test system: Morcaxella catarrhalis ATCC25238; assay: MIC, agar dilution method, Mueller-Hinton agar; details: 35° C., 24 hours
# Protocol: (§1) The following in vitro results were obtained based on an agar dilution method except for C. pneumoniae. The activity is presented as the minimum inhibitory concentration (MIC).
# (§2) S. aureus and M. catarrhalis were tested on Mueller-Hinton agar, using an approximate inoculum of 1×10^4 cfu/spot an incubation temperature of 35° C. for 24 hours. The MIC was defined as the lowest concentration at which no visible bacterial growth was observed.
# [2] = test system: Staphylococcus aureus MR (methicillin resistant); assay: MIC, agar dilution method, Mueller-Hinton agar; details: 35° C., 24 hours
# Protocol: as §1, §2
# [3] = test system: Staphylococcus aureus CR (chloramphenicol resistant); assay: MIC, agar dilution method, Mueller-Hinton agar; details: 35° C., 24 hours
# Protocol: as §1, §2
# [4] = test system: Staphylococcus aureus Smith; assay: MIC, agar dilution method, Mueller-Hinton agar; details: 35° C., 24 hours
# Protocol: as §1, §2
# [5] = test system: Streptococcus pyogenes IID692; assay: MIC, agar dilution method, Mueller-Hinton agar with 5% defibrinated horse blood; details: 35° C., 5 % CO2, 24 hours
# Protocol: as §1
# as §2, with “Streptococci” for “S. aureus”, “enterococci” for “M. catarrhalis”, “agar supplemented with 5% defibrinated horse blood,” for “agar,”, “C. in an atmosphere of 5 % CO2” for “C.”
# [6] = test system: Streptococcus pneumoniae PRQR (penicillin resistant, quinolone resistant); assay: as above; details: 35° C., 5 % CO2, 24 hours
# Protocol: as §1
# as §2, with “Streptococci” for “S. aureus”, “enterococci” for “M. catarrhalis”, “agar supplemented with 5% defibrinated horse blood,” for “agar,”, “C. in an atmosphere of 5 % CO2” for “C.”
# [7] = test system: Enterococcus faecium VRQR (vancomycin resistant, quinolone resistant); assay: as above; details: 35° C., 5 % CO2, 24 hours
# Protocol: as §1
# as §2, with “Streptococci” for “S. aureus”, “enterococci” for “M. catarrhalis”, “agar supplemented with 5% defibrinated horse blood,” for “agar,”, “C. in an atmosphere of 5 % CO2” for “C.”
# [8] = test system: Streptococcus pneumoniae IID553; assay: as above; details: 35° C., 5 % CO2, 24 hours
# Protocol: as §1
# as §2, with “Streptococci” for “S. aureus”, “enterococci” for “M. catarrhalis”, “agar supplemented with 5% defibrinated horse blood,” for “agar,”, “C. in an atmosphere of 5 % CO2” for “C.”
MIC [1] [µg/mL],MIC [2] [µg/mL],MIC [3] [µg/mL],MIC [4] [µg/mL],MIC [5] [µg/mL],MIC [6] [µg/mL],MIC [7] [µg/mL],MIC [8] [µg/mL],Structure (SMILES)
1,0.125,0.5,0.125,0.06,0.06,0.125,0.125,"CC(=O)NC[C@H]1CN(c2ccc(-c3ccc([C@@]4(C#N)[C@@H]5CNC[C@@H]54)nc3)cc2)C(=O)O1.Cl [Example 13, N-[5(S)-3-[4-[2-[(1α,5α,6β)-6-Cyano-3-azabicyclo[3.1.0]hexan-6-yl]pyridin-5-yl]phenyl]-2-oxooxazolidin-5-ylmethyl]acetamide Hydrochloride]"
4,0.25,1,0.25,0.25,0.25,0.5,0.25,"CC(=O)NC[C@H]1CN(c2ccc(-c3ccc([C@@]4(C#N)[C@@H]5CNC[C@@H]54)c(F)c3)c(F)c2)C(=O)O1.Cl [Example 15, N-[5(S)-3-[4-[4-[(1α,5α,6β)-6-Cyano-3-azabicyclo[3.1.0]hexan-6-yl]-3-fluorophenyl]-3-fluorophenyl]-2-oxooxazolidin-5-ylmethyl]acetamide Hydrochloride]"
0.5,0.06,0.5,0.06,0.06,0.06,0.06,0.06,"N#C[C@]1(c2ccc(-c3ccc(N4C[C@H](Cn5ccnn5)OC4=O)cc3F)cn2)[C@@H]2COC[C@@H]21 [Example 23, 1-[5(R)-3-[4-[2-[(1α,5α,6β)-6-Cyano-3-oxabicyclo[3.1.0]hexan-6-yl]pyridin-5-yl]-3-fluorophenyl]-2-oxooxazolidin-5-ylmethyl]-1,2,3-triazole]"
4,,,,,,,,"CC(=O)NC[C@H]1CN(c2ccc(N3CCOCC3)c(F)c2)C(=O)O1 [Linezolid, reference compound]"
